According to US12281149B2, “Modulators of G-protein coupled receptors” (priority 2021, dated 2025):
*1 amine or outer side, *2 acyl side, *3 side chain or, on linkers, in order; H or OH if unused. Where a SMILES comes first, the peptide text is derived from it. Side-chain parts run from the residue outwards. [ ]: non-standard residue; d: D form. The star is where a group is joined. Isobutyryl(2-(3-CN-5-F-Ph)) = CC(C)(C(=O)*)c1cc(F)cc(C#N)c1; C20 diacid = O=C(O)CCCCCCCCCCCCCCCCCCC(=O)*; C18 diacid = O=C(O)CCCCCCCCCCCCCCCCC(=O)*; γGlu = O=C(O)[C@H](CCC(=O)[*:2])N[*:1]; Trx = NC[C@H]1CC[C@H](C(=O)O)CC1; AEEA = NCCOCCOCC(=O)O; Aib = CC(C)(N)C(=O)O; βAla = NCCC(=O)O

How the values were obtained:
Assay type in all cases: cell-based
GLP-1 receptor [1] = target: T1, GLP-1 receptor (Homo sapiens, UniProt P43220); test: HitHunter cAMP assay, GLP-1 receptor; details: for EC50: CHO cells stably expressing human GLP-1 receptor, cAMP accumulation, 30 min, read-out: EC50 GLP-1R; for Emax: CHO cells, cAMP, normalized to maximum signal from GLP-1 (high) and DMSO (low), read-out: Emax GLP-1R
GIP receptor [2] = target: T2, GIP receptor (Homo sapiens, UniProt P48546); test: HitHunter cAMP assay, GIP receptor; details: for EC50: CHO cells stably expressing GIP receptor, cAMP accumulation, 30 min, read-out: EC50 GIP-1R; for Emax: CHO cells, cAMP, normalized to maximum signal from GIP (high) and DMSO (low), read-out: Emax GIP-1R
T2 sequence (P48546 22-466): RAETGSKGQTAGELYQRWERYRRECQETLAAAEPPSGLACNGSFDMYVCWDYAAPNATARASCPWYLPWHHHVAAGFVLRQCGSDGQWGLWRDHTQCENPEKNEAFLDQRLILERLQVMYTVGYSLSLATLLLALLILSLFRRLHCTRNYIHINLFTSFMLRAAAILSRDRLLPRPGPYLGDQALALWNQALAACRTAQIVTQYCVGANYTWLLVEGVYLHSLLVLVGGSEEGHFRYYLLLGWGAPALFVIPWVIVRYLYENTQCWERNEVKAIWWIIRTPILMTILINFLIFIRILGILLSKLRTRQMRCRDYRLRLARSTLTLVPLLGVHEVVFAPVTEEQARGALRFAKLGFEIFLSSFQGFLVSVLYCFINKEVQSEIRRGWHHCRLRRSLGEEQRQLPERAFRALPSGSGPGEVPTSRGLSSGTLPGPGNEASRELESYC

GIP receptor [3] = target: T2, GIP receptor; test: PathHunter β-arrestin assay, GIP receptor; set-up: host or cells: PathHunter CHO-K1 GIPR β-Arrestin Cell Line; details: β-arrestin-2 recruitment, PathHunter CHO-K1 GIPR β-Arrestin Cell Line, 90 min at 37° C.; normalized to GIP; read-out: GIPR β Arrestin EC50
Description: (§1) β-arrestin-2 recruitment for GLP-1 receptor or GIP receptor was measured using the DiscoverX PathHunter Detection Kit and PathHunter® CHO-K1 GLPIR β-Arrestin Cell Line or PathHunter® CHO-K1 GIPR β-Arrestin Cell Line, respectively). Briefly, cells were grown in Ham's F12 Nutrient Mix with 10% FBS and lifted with Cell dissociation buffer, Enzyme free, PBS based (ThermoFisher). Harvested cells were pelleted and resuspended in Assay Complete Cell Plating Reagent 2 and 5000 cells per well were plated in tissue culture treated 384-well small volume white assay plates. Plates were then incubated at 37° C. and 5% CO2 overnight. The media was then replaced with fresh Assay Complete Cell Plating Reagent 2. Cells were then treated with 10 nl compound in DMSO using an ECHO 550 acoustic dispenser (Labcyte) in a 20-point dose response format in duplicate for 90 min at 37° C. The assay was then completed according to the manufacturer's instructions. Luminescence was measured using a Perkin Elmer Envision plate reader. Raw data was normalized to the maximum signal from GLP-1 or GIP (high) and DMSO (low). Dose response curves were analyzed using GraphPad Prism 9.0.

GLP-1 receptor [4] = target: T1, GLP-1 receptor; test: PathHunter β-arrestin assay, GLP-1 receptor; set-up: host or cells: PathHunter CHO-K1 GLP1R β-Arrestin Cell Line; details: β-arrestin-2 recruitment, PathHunter CHO-K1 GLP1R β-Arrestin Cell Line, 90 min at 37° C.; normalized to GLP-1; read-out: GLP-1R β Arrestin EC50
Description: as §1

T1 sequence (P43220 24-463): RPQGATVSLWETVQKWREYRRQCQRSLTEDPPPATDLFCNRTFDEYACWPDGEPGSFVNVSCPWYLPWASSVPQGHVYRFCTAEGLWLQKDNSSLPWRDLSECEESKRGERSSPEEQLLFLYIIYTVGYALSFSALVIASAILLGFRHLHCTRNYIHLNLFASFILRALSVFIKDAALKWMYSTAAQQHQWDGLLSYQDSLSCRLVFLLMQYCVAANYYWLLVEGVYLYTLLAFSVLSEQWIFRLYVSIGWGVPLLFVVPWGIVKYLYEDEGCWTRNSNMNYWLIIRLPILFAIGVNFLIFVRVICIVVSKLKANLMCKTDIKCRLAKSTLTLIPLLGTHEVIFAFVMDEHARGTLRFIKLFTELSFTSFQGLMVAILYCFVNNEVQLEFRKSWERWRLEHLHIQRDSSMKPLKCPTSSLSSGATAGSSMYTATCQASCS

Row | Structure (SMILES) | EC50 (GLP-1 receptor [1]) | Emax (GLP-1 receptor [1]) | EC50 (GIP receptor [2]) | Emax (GIP receptor [2]) | EC50 (GIP receptor [3]) | EC50 (GLP-1 receptor [4])
1 | CC[C@H](C)[C@H](NC(=O)[C@H](CC(C)C)NC(=O)[C@H](Cc1c[nH]c2ccccc12)NC(=O)[C@H](CCC(N)=O)NC(=O)[C@@H](NC(=O)[C@H](Cc1ccccc1)NC(=O)[C@H](C)NC(=O)[C@H](CCCCNC(=O)COCCOCCNC(=O)COCCOCCNC(=O)CC[C@H](NC(=O)CCCCCCCCCCCCCCCCC(=O)O)C(=O)O)NC(=O)[C@H](CCC(N)=O)NC(=O)[C@H](C)NC(=O)[C@@H](NC(=O)[C@H](CCCCN)NC(=O)[C@H](CC(=O)O)NC(=O)[C@H](CC(C)C)NC(=O)C(C)(C)NC(=O)[C@@H](NC(=O)[C@H](CO)NC(=O)[C@H](Cc1ccc(O)cc1)NC(=O)[C@H](CC(=O)O)NC(=O)[C@H](CO)NC(=O)[C@@H](NC(=O)[C@H](Cc1ccccc1)NC(=O)[C@@H](NC(=O)CNC(=O)[C@H](CCC(=O)O)NC(=O)CCNC(=O)C(C)(C)c1cc(F)cc(C#N)c1)[C@@H](C)O)[C@@H](C)O)[C@@H](C)CC)[C@@H](C)CC)C(C)C)C(=O)N[C@@H](C)C(=O)NCC(=O)NCC(=O)N1CCC[C@H]1C(=O)N[C@@H](CO)C(=O)N[C@@H](CO)C(=O)NCC(=O)N[C@@H](C)C(=O)N1CCC[C@H]1C(=O)N1CCC[C@H]1C(=O)N1CCC[C@H]1C(=O)N[C@@H](CO)C(N)=O [Compound 106] ({Isobutyryl(2-(3-CN-5-F-Ph))-βAla}-EGTFTSDYSI[Aib]LDKIAQK([AEEA-AEEA-γGlu-C18 diacid])AFVQWLIAGGPSSGAPPPS-NH2) | 0.1 to 1 nM | 97% | 10 to 100 nM | 98% | > 1000 nM | > 1000 nM
2 | CC[C@H](C)[C@H](NC(=O)[C@H](CC(C)C)NC(=O)[C@H](Cc1c[nH]c2ccccc12)NC(=O)[C@H](CCC(N)=O)NC(=O)[C@@H](NC(=O)[C@H](Cc1ccccc1)NC(=O)[C@H](C)NC(=O)[C@H](CCCCNC(=O)CC[C@H](NC(=O)CC[C@H](NC(=O)CC[C@H](NC(=O)[C@H]1CC[C@H](CNC(=O)CCCCCCCCCCCCCCCCCCC(=O)O)CC1)C(=O)O)C(=O)O)C(=O)O)NC(=O)[C@H](CCC(N)=O)NC(=O)[C@H](C)NC(=O)[C@@H](NC(=O)[C@H](CCCCN)NC(=O)[C@H](CC(=O)O)NC(=O)[C@H](CC(C)C)NC(=O)C(C)(C)NC(=O)[C@@H](NC(=O)[C@H](CO)NC(=O)[C@H](Cc1ccc(O)cc1)NC(=O)[C@H](CC(=O)O)NC(=O)[C@H](CO)NC(=O)[C@@H](NC(=O)[C@H](Cc1ccccc1)NC(=O)[C@@H](NC(=O)CNC(=O)[C@H](CCC(=O)O)NC(=O)CCNC(=O)C(C)(C)c1cc(F)cc(C#N)c1)[C@@H](C)O)[C@@H](C)O)[C@@H](C)CC)[C@@H](C)CC)C(C)C)C(=O)N[C@@H](C)C(=O)NCC(=O)NCC(=O)N1CCC[C@H]1C(=O)N[C@@H](CO)C(=O)N[C@@H](CO)C(=O)NCC(=O)N[C@@H](C)C(=O)N1CCC[C@H]1C(=O)N1CCC[C@H]1C(=O)N1CCC[C@H]1C(=O)N[C@@H](CO)C(N)=O [Compound 107] ({Isobutyryl(2-(3-CN-5-F-Ph))-βAla}-EGTFTSDYSI[Aib]LDKIAQK([γGlu-γGlu-γGlu-Trx-C20 diacid])AFVQWLIAGGPSSGAPPPS-NH2) | 0.1 to 1 nM | 95% | 1 to 10 nM | 106% | < 1000 nM | > 1000 nM
3 | CC[C@H](C)[C@H](NC(=O)[C@H](CC(C)C)NC(=O)[C@H](Cc1c[nH]c2ccccc12)NC(=O)[C@H](CCC(N)=O)NC(=O)[C@@H](NC(=O)[C@H](Cc1ccccc1)NC(=O)[C@H](C)NC(=O)[C@H](CCCCNC(=O)COCCOCCNC(=O)COCCOCCNC(=O)CC[C@H](NC(=O)CCCCCCCCCCCCCCCCCCC(=O)O)C(=O)O)NC(=O)[C@H](CCC(N)=O)NC(=O)[C@H](C)NC(=O)[C@@H](NC(=O)[C@H](CCCCN)NC(=O)[C@H](CC(=O)O)NC(=O)[C@H](CC(C)C)NC(=O)C(C)(C)NC(=O)[C@@H](NC(=O)[C@H](CO)NC(=O)[C@H](Cc1ccc(O)cc1)NC(=O)[C@H](CC(=O)O)NC(=O)[C@H](CO)NC(=O)[C@@H](NC(=O)[C@H](Cc1ccccc1)NC(=O)[C@@H](NC(=O)CNC(=O)[C@H](CC(=O)O)NC(=O)CCNC(=O)C(C)(C)c1cc(F)cc(C#N)c1)[C@@H](C)O)[C@@H](C)O)[C@@H](C)CC)[C@@H](C)CC)C(C)C)C(=O)N[C@@H](C)C(=O)NCC(=O)NCC(=O)N1CCC[C@H]1C(=O)N[C@@H](CO)C(=O)N[C@@H](CO)C(=O)NCC(=O)N[C@@H](C)C(=O)N1CCC[C@H]1C(=O)N1CCC[C@H]1C(=O)N1CCC[C@H]1C(=O)N[C@@H](CO)C(N)=O [Compound 108] ({Isobutyryl(2-(3-CN-5-F-Ph))-βAla}-DGTFTSDYSI[Aib]LDKIAQK([AEEA-AEEA-γGlu-C20 diacid])AFVQWLIAGGPSSGAPPPS-NH2) | < 0.1 nM | 93% | 1 to 10 nM | 95% | < 1000 nM | > 1000 nM
4 | CC[C@H](C)[C@H](NC(=O)[C@H](CC(C)C)NC(=O)[C@H](Cc1c[nH]c2ccccc12)NC(=O)[C@H](CCC(N)=O)NC(=O)[C@@H](NC(=O)[C@H](Cc1ccccc1)NC(=O)[C@H](C)NC(=O)[C@H](CCCCNC(=O)COCCOCCNC(=O)COCCOCCNC(=O)CC[C@H](NC(=O)CCCCCCCCCCCCCCCCCCC(=O)O)C(=O)O)NC(=O)[C@H](CCC(N)=O)NC(=O)[C@H](C)NC(=O)[C@@H](NC(=O)[C@H](CCCCN)NC(=O)[C@H](CC(=O)O)NC(=O)[C@H](CC(C)C)NC(=O)C(C)(C)NC(=O)[C@@H](NC(=O)[C@H](CO)NC(=O)[C@H](Cc1ccc(O)cc1)NC(=O)[C@H](CC(=O)O)NC(=O)[C@H](CO)NC(=O)[C@@H](NC(=O)[C@H](Cc1ccccc1)NC(=O)[C@@H](NC(=O)CNC(=O)[C@@H](CCC(=O)O)NC(=O)CCNC(=O)C(C)(C)c1cc(F)cc(C#N)c1)[C@@H](C)O)[C@@H](C)O)[C@@H](C)CC)[C@@H](C)CC)C(C)C)C(=O)N[C@@H](C)C(=O)NCC(=O)NCC(=O)N1CCC[C@H]1C(=O)N[C@@H](CO)C(=O)N[C@@H](CO)C(=O)NCC(=O)N[C@@H](C)C(=O)N1CCC[C@H]1C(=O)N1CCC[C@H]1C(=O)N1CCC[C@H]1C(=O)N[C@@H](CO)C(N)=O [Compound 109] ({Isobutyryl(2-(3-CN-5-F-Ph))-βAla}-[dE]GTFTSDYSI[Aib]LDKIAQK([AEEA-AEEA-γGlu-C20 diacid])AFVQWLIAGGPSSGAPPPS-NH2) | 10 to 100 nM | 82% | 10 to 100 nM | 96% | > 1000 nM | > 1000 nM
